Patent US20260335294A1, “TREATING CONGENITAL DISORDERS OF GLYCOSYLATION” (Mayo Foundation for Medical Education and Research, priority 2022, published 2026)
“Also recorded” adds a separate entry of the source.

System: PMM2-CDG and healthy fibroblasts
Test: Metabolomic profiling (LC/MS, GC/MS) of fibroblasts treated with epalrestat
Type: cell-based, human
Procedure: Patient (P1-P6) and control fibroblasts were obtained by a skin punch biopsy. Fibroblasts were maintained in low glucose DMEM (Gibco) supplemented with 10% FBS in an incubator at 37 °C, 5% CO2, no longer than two months or until they reached passage 15 to avoid senescence. Routine mycoplasma testing was performed.
Briefly, 15,000 fibroblasts were plated in 1.5 mL DMEM (Gibco, 5.5 mM glucose, 2 mM glutamine, 10% FBS) per well in two 6-well plates. The medium change was performed on day 2 and day 4. On day 6, the medium was removed, cells were washed with ice-cold 0.9% NaCl (Sigma) (physiological solution) and 250 μL of extraction buffer (80% MeOH, IS) was added to the cells. Next, cells were scraped and the cell extracts transferred to 1.5 mL Eppendorf tubes and placed overnight at −80 °C. Next, samples were centrifuged at 15,000 rpm, 4 °C, 20 minutes. The supernatant was transferred to a vial for direct analysis by LC/MS, while 100 μL of 200 mM NaOH was added to the (protein) pellet. Pellets were incubated at 95 °C for 30 minutes after which they were centrifuged at 5,000 rpm, 4 °C, 10 minutes. Supernatant was used to determine protein concentration by BCA protein assay kit (Pierce).
Fibroblasts were plated in 6-well plates for LC/MS and T75 flasks for GC/MS analysis as described above. After 24 hours, medium was removed and cells washed with PBS. Then, DMEM containing 5.5 mM glucose, 2 mM glutamine, and 10% dialyzed FBS was added. Epalrestat was freshly prepared and fibroblasts were supplemented with 10 μM epalrestat daily. After 48 hours media was changed, and 48 hours after that, metabolites were extracted and measured by both LC/MS and GC/MS. Zebrafish embryos were genotyped at 2 days post fertilization (dpf), and were treated by adding the epalrestat (solubilized in DMSO) directly into the embryo media at 5 dpf. Control embryos were similarly treated with DMSO alone. Embryos were harvested for metabolic analyses 24 hours posttreatment. The final concentration of DMSO was equivalent between control and treatment, never exceeding 0.5%.
An ion-pairing liquid chromatography column (C18) was used to separate 10 μL of sample, after which the metabolites were resolved on a Thermo Fisher Q-Exactive Hybrid Quadrupole-Orbitrap Mass Spectrometer (negative ion mode). The ESI settings were as follows: 50 sheet gas flow rate, auxiliary gas flow rate 15, spray voltage of 4 kV, S-lens RF level of 60, and the capillary temperature at 350 °C. A full scan (resolution 140,000 at 200 m/z, AGC at 3 e6, 512 ms ion fill time, and 70-850 m/z scan range) was performed. The metabolites were identified according to their elution time and m/z ratios by using in-house metabolite standard library and El-Maven v0. 12.0/Polly™ Labeled LC-MS Workflow or Thermo Fisher Xcalibur software. The correction of naturally occurring carbon isotopes was also performed. Relative metabolite abundances were normalized to the internal standard and protein content.
For GC/MS measurements of hexose-P, hexose-bisphosphates, hexose and polyols, fibroblasts were cultured in a similar fashion as for LC/MS with the following adjustments: 1) an appropriate number of fibroblasts was plated in T75 flasks instead of 6-well plates to ensure the optimal amount of metabolite concentration necessary for GC/MS; 2) metabolites were extracted from cells with 2 mL 80% MeOH, IS and the supernatant was transferred to a fresh 2 mL Eppendorf tube. Standards containing metabolites of interest were prepared simultaneously and dried overnight together with cellular extracts by vacuum centrifugation at 4 °C. The following day, 20 μL of methoxyamine (MOX) (Sigma Aldrich) was added to the samples and they were incubated for 90 minutes at 37 °C. Next, 60 μL of N,O-bis(trimethylsilyl)trifluoroacetamide (TMS) (Sigma Aldrich) was added to the samples, which were then incubated at 60 °C for 30 minutes. Samples were kept overnight in a dry and cool place to allow further derivatization with TMS. […]

[1] = 10 μM daily, patient fibroblasts

CC(/C=C1\SC(=S)N(CC(=O)O)C1=O)=C\c1ccccc1 [epalrestat]
CMP-sialic acid abundance (10 μM daily): increased
UDP-HexNAc abundance (10 μM daily): increased
UDP-hexose abundance (10 μM daily): increased
glucose-1-P abundance (10 μM daily): increased
hexosamine-P abundance (10 μM daily): increased
hexose-P abundance (10 μM daily): increased
pentose-P abundance (10 μM daily): increased
sedoheptulose-7-P abundance (10 μM daily): increased
Glc-1,6-P2 abundance (10 μM daily, PMM2-CDG fibroblasts): increased; also recorded: significantly increase
mannitol abundance (10 μM daily, intracellular): reduced in the majority of patient fibroblasts
sorbitol abundance (10 μM daily, intracellular): significantly reduced; also recorded: significantly decreased
overall polyol pool (10 μM daily, patient and control cell lines, dialyzed FBS): reduced; also recorded: significantly decreased
GDP-mannose abundance [1]: increased; also recorded: significantly increase
man-1-P abundance [1]: increased; also recorded: significantly increase
mannose-6-P abundance [1]: increased; also recorded: significantly increase
GDP-mannose levels vs controls (patient fibroblasts, epalrestat alone): never reached the same levels as the ones seen in controls
